Where two headings read alike, the source gives them in different places.
Assays:
neuromuscular AChR = settings: cited from earlier work
human erythrocyte AChE = human erythrocyte AChE (Homo sapiens, UniProt P22303); assay: biochemical; assay type: biochemical
plasma BChE = plasma BChE (Homo sapiens, UniProt P06276); assay: biochemical
plasma BChE, sequence (P06276 29-602): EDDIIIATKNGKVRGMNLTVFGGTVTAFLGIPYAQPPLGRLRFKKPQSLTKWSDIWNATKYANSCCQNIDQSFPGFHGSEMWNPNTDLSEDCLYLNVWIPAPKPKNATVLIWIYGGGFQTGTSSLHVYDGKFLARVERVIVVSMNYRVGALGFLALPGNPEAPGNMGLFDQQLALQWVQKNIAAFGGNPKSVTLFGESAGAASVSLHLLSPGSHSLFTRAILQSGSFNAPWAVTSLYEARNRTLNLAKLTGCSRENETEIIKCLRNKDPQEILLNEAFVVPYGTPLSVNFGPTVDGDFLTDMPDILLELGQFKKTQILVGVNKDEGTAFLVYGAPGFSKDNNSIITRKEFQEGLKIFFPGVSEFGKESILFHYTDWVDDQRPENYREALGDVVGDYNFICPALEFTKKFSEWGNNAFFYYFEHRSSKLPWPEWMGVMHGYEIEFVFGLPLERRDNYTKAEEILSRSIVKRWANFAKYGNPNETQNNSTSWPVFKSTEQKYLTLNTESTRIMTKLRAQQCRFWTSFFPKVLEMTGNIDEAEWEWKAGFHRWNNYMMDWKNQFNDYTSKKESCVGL

human erythrocyte AChE, sequence (P22303-2 with tags, fused parts or gaps limits assumed): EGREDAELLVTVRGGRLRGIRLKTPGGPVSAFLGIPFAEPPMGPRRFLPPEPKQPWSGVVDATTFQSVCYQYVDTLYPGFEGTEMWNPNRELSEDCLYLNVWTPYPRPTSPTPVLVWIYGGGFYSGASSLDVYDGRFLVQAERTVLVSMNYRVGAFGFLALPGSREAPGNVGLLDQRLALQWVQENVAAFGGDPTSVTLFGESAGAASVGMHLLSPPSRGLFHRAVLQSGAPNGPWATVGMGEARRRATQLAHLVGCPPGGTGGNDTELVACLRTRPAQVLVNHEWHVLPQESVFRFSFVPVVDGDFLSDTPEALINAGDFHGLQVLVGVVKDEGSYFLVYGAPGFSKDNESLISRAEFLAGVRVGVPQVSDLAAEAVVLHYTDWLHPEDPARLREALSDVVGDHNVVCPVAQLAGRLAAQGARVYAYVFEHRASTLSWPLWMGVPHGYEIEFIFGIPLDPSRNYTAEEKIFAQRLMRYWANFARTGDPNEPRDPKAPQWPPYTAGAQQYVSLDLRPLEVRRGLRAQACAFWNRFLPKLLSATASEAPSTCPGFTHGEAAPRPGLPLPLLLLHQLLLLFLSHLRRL

| Structure (SMILES) | IC50 (human erythrocyte AChE; pH 8, read-out: AChE IC50) [nM] | IC50 (plasma BChE) [nM] | IC50 (plasma BChE; pH 8, read-out: BChE IC50) [nM] | also measured |
| --- | --- | --- | --- | --- |
| CNC(=O)Oc1ccc2c(c1)[C@]1(C)CCN(C)[C@@H]1N2C [(1) (-)-physostigmne, (-)-physostigmine] | – | – | – | properties at the neuromuscular AChR, in words (neuromuscular AChR): blocking properties as well as agonist properties at the neuromuscular AChR |
| CNC(=O)Oc1ccc2c(c1)[C@]1(C)CCO[C@@H]1N2C [(3) (-)-physovenine, (-)-physovenine, reference compound] | 27.1 ± 0.8 | 3.5 ± 1.4 | – | enzyme selectivity / preference (AChE vs BChE), in words (human erythrocyte AChE): inhibited AChE and BChE in vitro similarly at similar concentrations |
| Cc1ccccc1NC(=O)Oc1ccc2c(c1)[C@]1(C)CCN(C)[C@@H]1N2C [Ex. 7, (-)-2'-Methylphenylcarbamoyleseroline] | 10.3 ± 1.6 | – | – | – |
| Cc1ccc(NC(=O)Oc2ccc3c(c2)[C@]2(C)CCN(C)[C@@H]2N3C)c(C)c1 [Ex. 8, (-)-2'-4'-dimethylphenylcarbamoyleseroline] | – | – | 1820 ± 558 | IC50 (human erythrocyte AChE): 13.6 ± 1 nM |
| Cc1ccc(NC(=O)Oc2ccc3c(c2)[C@]2(C)CCN(C)[C@@H]2N3C)cc1 [Ex. 10, (-)-4'-methylphenylarbamoyleseroline] | 139 ± 3.7 | – | 251 ± 8.6 | – |
| CCc1cccc(CC)c1NC(=O)Oc1ccc2c(c1)[C@]1(C)CCN(C)[C@@H]1N2C [Ex. 11, (-)-2',6-diethylphenylcarbamoylescroline] | 1490 ± 49.8 | 1070 ± 48 | – | – |
| CCc1ccccc1NC(=O)Oc1ccc2c(c1)[C@]1(C)CCN(C)[C@@H]1N2C [Ex. 12, (-)-2'-ethylphenylcarbamoyleseroline] | – | – | 2920 ± 537 | IC50 (human erythrocyte AChE): 9.7 ± 0.1 nM |
| CN1CC[C@@]2(C)c3cc(OC(=O)Nc4ccccc4)ccc3N(C)[C@@H]12 [Ex. 14, (-)-phenylcarbamoyleserolne] | – | – | – | lower concentration for inhibition of AChE than of BChE (human erythrocyte AChE; human): 50 times |
| Cc1cc(C)c(NC(=O)Oc2ccc3c(c2)[C@]2(C)CCN(C)[C@@H]2N3C)c(C)c1 [Ex. 15, (-)-(-)-2',4',6'-trimethylphenylcarbamoyleseroline] | 1290 ± 73.8 | – | 3290 ± 885 | – |
| CN1CC[C@@]2(C)c3cc(OC(=O)Nc4ccccc4Cl)ccc3N(C)[C@@H]12 [Ex. 17, (-)-2'-chlorophenylcarbamoyleseroline] | – | 1610 ± 86.4 | – | IC50 (human erythrocyte AChE): 496 ± 28.2 nM |
| CN1CC[C@@]2(C)c3cc(OC(=O)Nc4c(Cl)cccc4Cl)ccc3N(C)[C@@H]12 [Ex. 18, (-)-2',6'-dichlorophenylcarbamoylseroline] | – | 425 ± 86.4 | – | IC50 (human erythrocyte AChE): 66.6 ± 1.8 nM |
| CN1c2ccc(OC(=O)Nc3ccccc3)cc2[C@]2(C)CCO[C@H]12 [Ex. 22, phenylcarbamate of (-)-physovenol] | – | 700 ± 37 | – | enzyme selectivity / preference (AChE vs BChE), in words (human erythrocyte AChE): high preference for Ache; IC50 (human erythrocyte AChE; AChE IC50): 11.2 ± 2.1 nM; IC50 (human erythrocyte AChE; IC50 for AChE): 11 nM |
| Cc1ccccc1NC(=O)Oc1ccc2c(c1)[C@]1(C)CCO[C@@H]1N2C [Ex. 23, (-)-5-O-(2'-Methylphenylcarbamoyl)physovenol] | 12.9 ± 0.8 | – | 1560 ± 120 | – |
| CC(C)c1ccc(NC(=O)Oc2ccc3c(c2)[C@]2(C)CCO[C@@H]2N3C)cc1 [compound 24] | – | – | – | enzyme selectivity / preference (AChE vs BChE), in words (human erythrocyte AChE): reverse enzyme specificity; IC50 (human erythrocyte AChE; read-out: IC50 for AChE): 3800 nM; IC50 (plasma BChE; read-out: IC50 for BChE (printed once as RChE)): 16.5 nM |

Source: US5171750A (priority 1991, dated 1992)
